This passage reports EC50 results from patent US9656963B2 (BRISTOL-MYERS SQUIBB COMPANY, priority 2012, dated 2017).

For this experiment, the target named is T1, hGPR40 (Homo sapiens, UniProt O14842).
T1 construct: 3x FLAG; expressed in transfected cells
T1 sequence (O14842 whole entry): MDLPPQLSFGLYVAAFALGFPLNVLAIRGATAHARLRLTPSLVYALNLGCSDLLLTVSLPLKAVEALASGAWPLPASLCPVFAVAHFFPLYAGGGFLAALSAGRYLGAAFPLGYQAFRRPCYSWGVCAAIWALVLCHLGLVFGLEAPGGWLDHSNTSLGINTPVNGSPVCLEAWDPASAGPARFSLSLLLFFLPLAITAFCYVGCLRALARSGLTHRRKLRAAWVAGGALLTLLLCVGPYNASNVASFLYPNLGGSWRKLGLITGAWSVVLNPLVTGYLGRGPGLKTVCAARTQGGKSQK
The experiment in a line: FDSS-Based Intracellular Calcium Assay. It is filed as cell-based. As to conditions: cells expressing GPR40, intracellular Ca2+ response. The method, then: FDSS-Based Intracellular Calcium Assay
Cell lines expressing GPR40 are generated using the pDEST 3× flag gene expression system and are cultured in culture medium comprising the following components: F12 (Gibco #11765), 10% lipid deprived fetal bovine serum, 250 μg/ml zeocin and 500 μg/ml G418. To conduct the fluorescent imaging plate reader (FLIPR)-based calcium flux assay to measure intracellular Ca^2+ response, cells expressing GPR40 are plated on 384 well plates (BD Biocoat #356697) at a density of 20,000 cells/20 μL medium per well in phenol red and serum-free DMEM (Gibco #21063-029) and incubated overnight. […] Compounds are dissolved in DMSO and diluted to desired concentrations with assay buffer and added to the cells as 3x solution (20 μL per well). Run fluorescence/luminescence reader FDSS (Hamamatsu) to read intracellular Ca^2+ response.
As for `COc1ccc(F)c(-c2ccc(Cc3ccc(N4N=C(C(F)(F)F)CC4(C)CC(=O)O)cc3)c(C)c2)c1` (single isomer, unassigned) [Example 51, Isomer 2, 2-(1-(4-((2′-fluoro-5′-methoxy-3-methylbiphenyl-4-yl)methyl)phenyl)-5-methyl-3-(trifluoromethyl)-4,5-dihydro-1H-pyrazol-5-yl)acetic acid], the EC50 (in general, the midpoint of the concentration-response curve) was found to be 1490 nM.
With `Cc1cc(-c2cc(C#N)ccc2F)ccc1Cc1ccc(N2N=C(C#N)CC2CC(=O)O)cc1` (racemic) [Example 39, 2-(3-cyano-1-(4-((5′-cyano-2′-fluoro-3-methylbiphenyl-4-yl)methyl)phenyl)-4,5-dihydro-1H-pyrazol-5-yl)acetic acid], the EC50 worked out at 200 nM.
Turning to `COc1ccc(F)c(-c2ccc(Cc3ccc(N4N=C(c5ccc(Cl)cc5)[C@@H](C)[C@@H]4CC(=O)O)cc3)c(C)c2)c1` (single isomer, unassigned) [Example 66, Isomer 1], the concentration giving a half-maximal response (EC50) turned out to be 13 nM.
Consider `COc1ccc(F)c(-c2ccc(Cc3ccc(N4N=C(c5cc(C)on5)[C@@H](C)[C@@H]4CC(=O)O)cc3)c(C)c2)c1` (single isomer, unassigned) [Example 69, isomer 2], for which the half-maximal effective concentration (EC50) was determined as 2560 nM.
For the compound `COc1cccc(-c2ccc(Cc3ccc(N4N=C(C(F)(F)F)CC4CC(=O)O)cc3)c(C)c2)c1` (single isomer, unassigned) [Example 26, Isomer 2, 2-(1-(4-((3′-methoxy-3-methylbiphenyl-4-yl)methyl)phenyl)-3-(trifluoromethyl)-4,5-dihydro-1H-pyrazol-5-yl)acetic acid], the EC50 was found to be 120 nM.
Under `Cc1ccccc1Oc1ccc(N2N=C(c3nnnn3C)CC2CC(=O)O)cc1` (racemic) [Example 7, 2-(3-(1-methyl-1H-tetrazol-5-yl)-1-(4-(o-tolyloxy)phenyl)-4,5-dihydro-1H-pyrazol-5-yl)acetic acid] stands 3200 nM; under `Cc1ccccc1Oc1ccc(N2N=C(C#N)CC2CC(=O)O)cc1` (single isomer, unassigned) [Example 3, Isomer 1, 2-(3-cyano-1-(4-(o-tolyloxy)phenyl)-4,5-dihydro-1H-pyrazol-5-yl)acetic acid], 37 nM.
Turning to `COc1ccc(F)c(-c2cc(C)c(Oc3ccc(N4N=C(C#N)CC4CC(=O)O)cc3)cc2C)c1` (racemic) [Example 35, 2-(3-cyano-1-(4-(2′-fluoro-5′-methoxy-2,5-dimethylbiphenyl-4-yloxy)phenyl)-4,5-dihydro-1H-pyrazol-5-yl)acetic acid], the EC50 amounted to 180 nM.
Regarding `CCOc1ccc(F)c(-c2ccc(Cc3ccc(N4N=C(C(F)(F)F)[C@@H](C)[C@@H]4CC(=O)O)cc3)c(C)c2)c1` [Example 70, 2-((4S,5S)-1-(4-((5′-ethoxy-2′-fluoro-3-methyl-[1,1′-biphenyl]-4-yl)methyl)phenyl)-4-methyl-3-(trifluoromethyl)-4,5-dihydro-1H-pyrazol-5-yl)acetic acid], the EC50 turned out to be 120 nM.
Take `COc1ccc(F)c(-c2ccc(Oc3ccc(N4N=C(C(F)(F)F)CC4CC(=O)O)cc3)c(Cl)c2)c1` (single isomer, unassigned) [Example 42, Isomer 2, 2-(1-(4-(3-chloro-2′-fluoro-5′-methoxybiphenyl-4-yloxy)phenyl)-3-(trifluoromethyl)-4,5-dihydro-1H-pyrazol-5-yl)acetic acid]: the EC50 was determined as 290 nM.
To `COc1ccc(F)c(-c2ccc(Cc3ccc(N4N=C(C(F)(F)F)C(CC(C)C)C4CC(=O)O)cc3)c(C)c2)c1` (single isomer, unassigned) [Example 41, Isomer 2, 2-(1-(4-((2′-fluoro-5′-methoxy-3-methylbiphenyl-4-yl)methyl)phenyl)-4-isobutyl-3-(trifluoromethyl)-4,5-dihydro-1H-pyrazol-5-yl)acetic acid] belongs 95 nM; to `COc1ccc(F)c(-c2ncc(Cc3ccc(N4N=C(C(F)(F)F)[C@@H](C)[C@@H]4CC(=O)O)cc3)c(C)n2)c1` (single isomer, unassigned) [Example 63], 700 nM; to `Cc1ccccc1Oc1ccc(N2N=C(C#N)CC2CC(=O)O)cc1` (single isomer, unassigned) [Example 3, Isomer 2, 2-(3-cyano-1-(4-(o-tolyloxy)phenyl)-4,5-dihydro-1H-pyrazol-5-yl)acetic acid], 560 nM.
In the case of `Cc1cc(Cc2ccc(N3N=C(C(F)(F)F)CC3CC(=O)O)cc2)ccc1-c1cc(OC(F)(F)F)ccc1Cl` (racemic) [Example 25, 2-(1-(4-((2′-chloro-2-methyl-5′-(trifluoromethoxy)biphenyl-4-yl)methyl)phenyl)-3-(trifluoromethyl)-4,5-dihydro-1H-pyrazol-5-yl)acetic acid], the EC50 is 280 nM.
Under `COc1ccc(Cc2ccc(N3N=C(C#N)CC3CC(=O)O)cc2)c(C)c1` (racemic) [Example 37, 2-(3-cyano-1-(4-(4-methoxy-2-methylbenzyl)phenyl)-4,5-dihydro-1H-pyrazol-5-yl)acetic acid] stands 150 nM; under `COc1ccc(F)c(-c2ccc(Cc3ccc(N4N=C(c5ccccc5)C(C)C4CC(=O)O)cc3)c(C)c2)c1` (single isomer, unassigned) [Example 59, Isomer 2, 2-(1-(4-((2′-fluoro-5′-methoxy-3-methyl-[1,1′-biphenyl]-4-yl)methyl)phenyl)-4-methyl-3-phenyl-4,5-dihydro-1H-pyrazol-5-yl)acetic acid], 6 nM; under `Cc1cc(Br)ccc1Oc1ccc(N2N=C(C(F)(F)F)CC2CC(=O)O)cc1` (racemic) [Example 13, 2-(1-(4-(4-bromo-2-methylphenoxy)phenyl)-3-(trifluoromethyl)-4,5-dihydro-1H-pyrazol-5-yl)acetic acid], 160 nM.
To `COc1ccc(F)c(-c2ccc(Oc3ccc(N4N=C(c5ncco5)CC4CC(=O)O)cc3)c(C)c2)c1` (single isomer, unassigned) [Example 8, Isomer 1, 2-(1-(4-(2′-fluoro-5′-methoxy-3-methylbiphenyl-4-yloxy)phenyl)-3-(oxazol-2-yl)-4,5-dihydro-1H-pyrazol-5-yl)acetic acid] belongs 910 nM; to `COc1ccc(F)c(-c2ccc(Cc3ccc(N4N=C(C(F)(F)F)C(CC#N)C4CC(=O)O)cc3)c(C)c2)c1` (single isomer, unassigned) [Example 54, isomer 1, 2-(4-(cyanomethyl)-1-(4-((2′-fluoro-5′-methoxy-3-methyl-[1,1′-biphenyl]-4-yl)methyl)phenyl)-3-(trifluoromethyl)-4,5-dihydro-1H-pyrazol-5-yl)acetic acid, trans-diastereomer], 380 nM; to `COc1cccc(-c2ccc(Cc3ccc(N4N=C(C#N)CC4CC(=O)O)cc3)c(C)c2)c1` (racemic) [Example 38, 2-(3-cyano-1-(4-((3′-methoxy-3-methylbiphenyl-4-yl)methyl)phenyl)-4,5-dihydro-1H-pyrazol-5-yl)acetic acid], 190 nM.
To `O=C(O)CC1CC(C(F)(F)F)=NN1c1ccc(OCc2ccc(Cl)cc2Cl)cc1` (racemic) [Example 2, 2-(1-(4-(2,4-dichlorobenzyloxy)phenyl)-3-(trifluoromethyl)-4,5-dihydro-1H-pyrazol-5-yl)acetic acid] belongs 800 nM; to `CCC1C(C(F)(F)F)=NN(c2ccc(Cc3ccc(-c4cc(OC)ccc4F)cc3C)cc2)C1CC(=O)O` (single isomer, unassigned) [Example 44, Isomer 2, 2-(4-ethyl-1-(4-((2′-fluoro-5′-methoxy-3-methylbiphenyl-4-yl)methyl)phenyl)-3-(trifluoromethyl)-4,5-dihydro-1H-pyrazol-5-yl)acetic acid], 20 nM.
In the case of `COc1ccc(Cl)c(-c2ccc(Cc3ccc(N4N=C(C#N)CC4CC(=O)O)cc3)c(C)c2)c1` (racemic) [Example 40, 2-(1-(4-((2′-chloro-5′-methoxy-3-methylbiphenyl-4-yl)methyl)phenyl)-3-cyano-4,5-dihydro-1H-pyrazol-5-yl)acetic acid], the EC50 came out at 120 nM.
To `CCC1C(C(F)(F)F)=NN(c2ccc(Cc3ccc(-c4cc(OC)ccc4F)cc3C)cc2)C1CC(=O)O` (single isomer, unassigned) [Example 44, Isomer 1, 2-(4-ethyl-1-(4-((2′-fluoro-5′-methoxy-3-methylbiphenyl-4-yl)methyl)phenyl)-3-(trifluoromethyl)-4,5-dihydro-1H-pyrazol-5-yl)acetic acid] belongs 1310 nM.
Turning to `COc1ccc(OC)c(-c2ccc(Cc3ccc(N4N=C(C#N)CC4CC(=O)O)cc3)c(C)c2)c1` (single isomer, unassigned) [Example 49, Isomer 1, 2-(3-cyano-1-(4-((2′,5′-dimethoxy-3-methylbiphenyl-4-yl)methyl)phenyl)-4,5-dihydro-1H-pyrazol-5-yl)acetic acid], the EC50 came to 225 nM.
`COc1ccc(F)c(-c2ccc(Cc3ccc(N4N=C(C(=O)O)[C@@H](C)[C@@H]4CC(=O)O)cc3)c(C)c2)c1` [Example 57, (4S,5S)-5-(carboxymethyl)-1-(4-((2′-fluoro-5′-methoxy-3-methyl-[1,1′-biphenyl]-4-yl)methyl)phenyl)-4-methyl-4,5-dihydro-1H-pyrazole-3-carboxylic acid]: the EC50 came to 6620 nM.
As for `COc1ccc(F)c(-c2ccc(Cc3ccc(N4N=C(C(F)(F)F)C[C@@H]4CC(=O)O)cc3)c(Cl)c2)c1` (single isomer, unassigned) [Example 20, Isomer 2], the EC50 stood at 50 nM.
